Molecular target: T1, KRAS G12C 1-169, his-tagged protein, GDP-loaded (Homo sapiens, UniProt P01116, G12C)
T1 construct: KRAS G12C 1-169, his-tagged protein, GDP-loaded
Assay: Biochemical assay: covalent modification of KRAS G12C measured by mass spectrometry (RapidFire/TOF or Q-Exactive)
Conditions: covalent binding to KRAS G12C
In short: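 GDP-loaded his-tagged KRAS G12C 1-169 at 2 μM in 20 mM Hepes, 150 mM NaCl, 1 mM MgCl2 incubated at room temperature with compound (10, 30 or 100 μM final, 2% DMSO) for 30 min, 2 h or 24 h, then quenched with formic acid. Intact-protein LC-MS (RapidFire/TOF or Q-Exactive) with deconvolution quantified modified versus unmodified protein.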

Row | SMILES | Binding % (compounds of structure (I)) | other results
1 | C=CC(=O)N1CCN(c2nc(CCNc3ncccn3)nc3c(F)c(-c4c(O)cccc4F)c(Cl)cc23)CC1 [Example I-135, 1-(4-(6-chloro-8-fluoro-7-(2-fluoro-6-hydroxyphenyl)-2-(2-(pyrimidin-2-ylamino)ethyl)quinazolin-4-yl)piperazin-1-yl) prop-2-en-1-one] | +++ (+++ indicates binding activity greater than 90%) | 
2 | C=CC(=O)N1C(C)CN(c2ncnc3c(F)c(-c4c(O)cccc4F)c(Cl)cc23)CC1C (stereo not drawn) [III-9, 1-(4-(6-chloro-8-fluoro-7-(2-fluoro-6-hydroxy-phenyl)quinazolin-4-yl)-2,6-dimethyl-piperazin-1-yl)prop-2-en-1-one] |  | Binding % (compounds of structure (III)): ++ (++ indicates activity from 50% to 90%)
3 | C=CC(=O)N1CCN(c2nc(OCCN(C)C)nc3c(F)c(-c4cc(O)cc5ccccc45)c(Cl)cc23)CC1 (atropisomer, axis not shown) [Example I-96, (R)-1-(4-(6-chloro-2-(2-(dimethylamino)ethoxy)-8-fluoro-7-(3-hydroxy-naphthalen-1-yl)quinazolin-4-yl)piperazin-1-yl)prop-2-en-1-one] | + (+ indicates binding activity up to 50%) | 
4 | C=CC(=O)N1CCN(c2nc(OCCN3CCC(F)(F)CC3)nc3c(F)c(-c4c(O)cccc4F)c(Cl)cc23)CC1 [Example I-38, 1-(4-(6-chloro-2-(2-(4,4-difluoro-piperidin-1-yl)ethoxy)-8-fluoro-7-(2-fluoro-6-hydroxyphenyl)quinazolin-4-yl)piperazin-1-yl) prop-2-en-1-one] | +++ (+++ indicates binding activity greater than 90%) | 
5 | C=CC(=O)N1C[C@@H](C)N(c2ncnc3c(F)c(-c4c(O)cccc4F)c(Cl)cc23)[C@@H](C)C1 (atropisomer, axis not shown) [III-4, 1-((3S,5R)-4-((R)-6-chloro-8-fluoro-7-(2-fluoro-6-hydroxy-phenyl)quinazolin-4-yl)-3,5-dimethyl-piperazin-1-yl)prop-2-en-1-one] |  | Binding % (compounds of structure (III)): + (+ indicates binding activity up to 50%)
6 | C=CC(=O)N1CCN(c2nc(OC3CCC(O)CC3)nc3c(F)c(-c4c(O)cccc4F)c(Cl)cc23)CC1 (stereo not drawn) [Example I-63, 1-(4-(6-chloro-8-fluoro-7-(2-fluoro-6-hydroxyphenyl)-2-(4-hydroxy-cyclohexyloxy)quinazolin-4-yl)piperazin-1-yl)prop-2-en-1-one] | +++ (+++ indicates binding activity greater than 90%) | 
7 | C=CC(=O)N1CCN(c2nc(OCC(O)CN(C)C)nc3c(F)c(-c4c(C)ccc5[nH]ncc45)c(Cl)cc23)CC1 (stereo not drawn) [Example I-53, 1-(4-(6-chloro-2-(3-(dimethyl-amino)-2-hydroxy-propoxy)-8-fluoro-7-(5-methyl-1H-indazol-4-yl)quinazolin-4-yl)piperazin-1-yl)prop-2-en-1-one] | +++ (+++ indicates binding activity greater than 90%) | 
8 | C=CC(=O)N1CCN(c2nc(OCc3cccnn3)nc3c(F)c(-c4c(O)cccc4F)c(Cl)cc23)CC1 [Example I-119, 1-(4-(6-chloro-8-fluoro-7-(2-fluoro-6-hydroxyphenyl)-2-(pyridazin-3-ylmethoxy)quinazolin-4-yl)piperazin-1-yl) prop-2-en-1-one] | + (+ indicates binding activity up to 50%) | 
9 | C=CC(=O)N1CCN(c2nc(N3CC(N(C)C)C3)nc3c(F)c(-c4c(O)cccc4F)c(Cl)cc23)CC1 (atropisomer, axis not shown) [Example I-116, (S)-1-(4-(6-chloro-2-(3-(dimethylamino)azetidin-1-yl)-8-fluoro-7-(2-fluoro-6-hydroxyphenyl)quinazolin-4-yl)piperazin-1-yl) prop-2-en-1-one] | +++ (+++ indicates binding activity greater than 90%) | 
10 | C=CC(=O)N1CCN(c2nc(N3CC(N(C)C)C3)nc3c(F)c(-c4c(O)cccc4F)c(Cl)cc23)CC1 [Example I-55, 1-(4-(6-chloro-2-(3-(dimethyl-amino)azetidin-1-yl)-8-fluoro-7-(2-fluoro-6-hydroxyphenyl)quinazolin-4-yl)piperazin-1-yl) prop-2-en-1-one] | +++ (+++ indicates binding activity greater than 90%) | 
11 | C=CC(=O)N1CCN(c2nc(NC3CCN(CC4CC4)CC3)nc3c(F)c(-c4c(C)ccc5[nH]ncc45)c(Cl)cc23)CC1 [Example I-128, 1-(4-(6-chloro-2-(1-(cyclo-propylmethyl)piperidin-4-ylamino)-8-fluoro-7-(5-methyl-1H-indazol-4-yl)quinazolin-4-yl)piperazin-1-yl) prop-2-en-1-one] | +++ (+++ indicates binding activity greater than 90%) | 
12 | C=CC(=O)N1CCN(c2nc(N3CCCC3)nc3c(F)c(-c4c(O)cccc4F)c(Cl)cc23)CC1 [Example I-147, 1-(4-(6-chloro-8-fluoro-7-(2-fluoro-6-hydroxyphenyl)-2-(pyrrolidin-1-yl)quinazolin-4-yl)piperazin-1-yl)prop-2-en-1-one] | ++ (++ indicates binding activity from 50 to 90%) | 
13 | C=CC(=O)N1CCN(c2nc(NC3CCN(C4CC4)CC3)nc3c(F)c(-c4c(O)cccc4F)c(Cl)cc23)CC1 [Example I-72, 1-(4-(6-chloro-2-(1-cyclopropyl-piperidin-4-ylamino)-8-fluoro-7-(2-fluoro-6-hydroxyphenyl)quinazolin-4-yl)piperazin-1-yl) prop-2-en-1-one] | +++ (+++ indicates binding activity greater than 90%) | 
14 | C=CC(=O)N1C[C@@H](C)N(c2ncnc3c(F)c(-c4c(O)cccc4F)c(Cl)cc23)[C@H](C)C1 [III-33, 1-((3R,5R)-4-(6-chloro-8-fluoro-7-(2-fluoro-6-hydroxy-phenyl)quinazolin-4-yl)-3,5-dimethyl-piperazin-1-yl)prop-2-en-1-one] |  | Binding % (compounds of structure (III)): + (+ indicates binding activity up to 50%)
15 | C=CC(=O)N1CCN(c2nc(NCCP(C)(C)=O)nc3c(F)c(-c4c(O)cccc4F)c(Cl)cc23)CC1 [Example I-208, 1-(4-(6-chloro-2-(2-(dimethyl-phosphoryl)ethylamino)-8-fluoro-7-(2-fluoro-6-hydroxyphenyl)quinazolin-4-yl)piperazin-1-yl) prop-2-en-1-one] | ++ (++ indicates binding activity from 50 to 90%) | 
16 | C=CC(=O)N1CCN(c2nc(OC3CCN(C)CC3)nc3c(F)c(-c4c(O)cccc4F)c(Cl)cc23)CC1 [Example I-92, 1-(4-(6-chloro-8-fluoro-7-(2-fluoro-6-hydroxyphenyl)-2-(1-methyl-piperidin-4-yloxy)quinazolin-4-yl)piperazin-1-yl)prop-2-en-1-one] | +++ (+++ indicates binding activity greater than 90%) | 
17 | C=CC(=O)N1CCN(c2nc(OCCN3CCOCC3)nc3c(F)c(-c4c(C)ccc5[nH]ncc45)c(Cl)cc23)CC1 (atropisomer, axis not shown) [Example I-32, (S)-1-(4-(6-chloro-8-fluoro-7-(5-methyl-1H-indazol-4-yl)-2-(2-morpholino-ethoxy)quinazolin-4-yl)piperazin-1-yl)prop-2-en-1-one] | + (+ indicates binding activity up to 50%) | 
18 | C=CC(=O)N1C[C@@H](C)N(c2ncnc3c(F)c(-c4cc(O)cc5ccccc45)c(Cl)cc23)[C@@H](C)C1 [III-41, 1-((3S,5R)-4-(6-chloro-8-fluoro-7-(3-hydroxy-naphthalen-1-yl)quinazolin-4-yl)-3,5-dimethyl-piperazin-1-yl)prop-2-en-1-one] |  | Binding % (compounds of structure (III)): ++ (++ indicates activity from 50% to 90%)
19 | C=CC(=O)N1CCN(c2nc(OCCN3CCCC3=O)nc3c(F)c(-c4c(O)cccc4F)c(Cl)cc23)CC1 [Example I-16, 1-(2-(4-(4-acryloyl-piperazin-1-yl)-6-chloro-8-fluoro-7-(2-fluoro-6-hydroxyphenyl)quinazolin-2-yloxy)ethyl) pyrrolidin-2-one] | +++ (+++ indicates binding activity greater than 90%) | 
20 | O=C(/C=C/CN1CCC1)N1CCN(c2ncnc3c(F)c(-c4c(O)cccc4F)c(Cl)cc23)CC1 [II-2, (E)-4-(azetidin-1-yl)-1-(4-(6-chloro-8-fluoro-7-(2-fluoro-6-hydroxyphenyl)quinazolin-4-yl)piperazin-1-yl)but-2-en-1-one] |  | Binding % (compounds of structure (II)): +++ (+++ indicates binding activity of 75% or greater)
21 | O=C(/C=C/CN1CCOCC1)N1CCN(c2ncnc3c(F)c(-c4c(O)cccc4F)c(Cl)cc23)CC1 [II-1, (E)-1-(4-(6-chloro-8-fluoro-7-(2-fluoro-6-hydroxyphenyl)quinazolin-4-yl)piperazin-1-yl)-4-morpholinobut-2-en-1-one] |  | Binding % (compounds of structure (II)): + (+ indicates binding activity up to 50%)
22 | C=CC(=O)N1CCN(c2nc(OCCN3CCC(F)(F)C3)nc3c(F)c(-c4c(O)cccc4F)c(Cl)cc23)CC1 (atropisomer, axis not shown) [Example I-97, (S)-1-(4-(6-chloro-2-(2-(3,3-difluoro-pyrrolidin-1-yl)ethoxy)-8-fluoro-7-(2-fluoro-6-hydroxyphenyl)quinazolin-4-yl)piperazin-1-yl)prop-2-en-1-one] | +++ (+++ indicates binding activity greater than 90%) | 
23 | C=CC(=O)N1CCN(c2c(C#N)c(NC3CCN(C4CC4)CC3)nc3c(F)c(-c4c(C)ccc5[nH]ncc45)c(Cl)cc23)CC1 [Example I-202, 4-(4-acryloyl-piperazin-1-yl)-6-chloro-2-((1-cyclopropyl-piperidin-4-yl)amino)-8-fluoro-7-(5-methyl-1H-indazol-4-yl) quinoline-3-carbonitrile] | ++ (++ indicates binding activity from 50 to 90%) | 
24 | C=CC(=O)N1CCN(c2nc(N3CCOCC3)nc3c(F)c(-c4cc(O)cc5ccccc45)c(Cl)cc23)CC1 [Example I-46, 1-(4-(6-chloro-8-fluoro-7-(3-hydroxy-naphthalen-1-yl)-2-morpholino-quinazolin-4-yl)piperazin-1-yl)prop-2-en-1-one] | +++ (+++ indicates binding activity greater than 90%) | 

Source: patent publication US10829458B2 (Araxes Pharma LLC, priority 2015, dated 2020)
